Laboratory results published in patent US10987382B2, “Solanum dubium seeds and honey (extracted from bee hives in Acacia tree populated area) combination for treatment of asthma and bronchial asthma” (priority 2015, dated 2021).

Tested on: Carrageenan induced paw oedema in Wister Rats
Assay: Carrageenan induced paw oedema (anti-inflammatory activity)
Format: in vivo, rat
Details: for % reduction in edema volume: 40 mg/kg i.p.
Protocol: And anti-inflammatory study of aqueous crude extract of S. dubuim seeds, honey and S. dubuim seeds and honey (combination) on Wister Rats (42 rats), done to evaluate the anti inflammatory effects in animals using the method of Carrageenan induced paw oedema. (Nayak and Patel, 2010).
The first group serve as control and receive normal saline (1 ml/kg, orally), the second group served as standard and were administrated standard drug diclofenac sodium (100 mg/kg i.p.). The remaining groups were treated with, the third group received honey (2 ml/kg, orally), the fourth group are treated with the S. dubium seeds (2 ml/kg orally), the fifth group are treated with combination (2 ml/kg orally), the sixth group are treated with combination (4 ml/kg orally) and group seventh treated with standard drug hydrocortisone (40 mg/kg i.p.). A mark was made on both the hind paws just below the tibio-tarsal junction. After 30 min of the above treatment an inflammatory oedema was induced in the left hind paw by inject 0.1 ml solution of Carrageenan, in the planter tissue of all the animals. The paw volume was measured at first hour and followed every hour till the fifths hour after administration of carrageenan of each group. The difference between the initial and subsequence reading gave the actual edema volume. […] 100 mg/kg.
Finally the results of the anti-inflammatory activity of the fractions of methanolic extract (144) Wister Rats. […] Also the alcoholic extract of all fractions decreased rat paw edema at the end of 5th hour. The paw volume was measured initially at 0, 1, 2, 3, 4 and 5 h after Carrageenan injection using digital paw edema meter. Percent inhibition of inflammation was calculated using the formula: % Inhibition=100(1−vt/vc). Where (vc) represents edema volume in control and (vt) edema volume in group treated with sample.

Row | Compound | inhibition at 100 mg/kg (Rattus norvegicus, ip, 100 mg/kg i.p., after 4 hour, read-out: % inhibition of paw edema) | % reduction in edema volume (after 4 hour) | % reduction in edema volume (after 5 hour)
1 | O=C(O)Cc1ccccc1Nc1c(Cl)cccc1Cl [diclofenac sodium] | 74.3% | – | –
2 | C[C@]12CCC(=O)C=C1CC[C@@H]1[C@@H]2[C@@H](O)C[C@@]2(C)[C@H]1CC[C@]2(O)C(=O)CO [hydrocortisone] | – | 70.39% | 76.35%
